Laboratory results from patent publication US7528274B2, “Acylthiols and component thiol compositions as anti-HIV and anti-retroviral agents” (The United States of America as represented by the …, priority 2001, dated 2009).
pEC50, pIC50: −log10 of the molar value. Like-named read-outs stand apart in the source and are kept apart here.

What was measured:
[1] = XTT assay, cytotoxicity (cellular growth inhibition) in CEM-SS cells; format: cell-based; conditions: human
Description: (§1) One exemplary means to determine antiviral activity is with CEM-SS cells and virus (e.g., HIV-1RF) (MOI=0.01) using the XTT (2,3-bis[2-methoxy-4-nitro-5-sulfophenyl]-5-[(phenylamino)carbonyl]-2H-tetrazolium hydroxide) cytoprotection assay, as described by Rice (1993) PNAS 90:9721-9724, and Rice (1997) Antimicrob. Agents Chemother. […] Briefly, cells are infected with HIV-1RF (or other virus to be tested) in the presence of various dilutions of test compounds or control compounds. The cultures are incubated for seven days. […] The cell death is measured by XTT dye reduction. XTT is a soluble tetrazolium dye that measures mitochondrial energy output, similar to MTT. […] Individual assays are done in duplicate using a sister plate method.
as §1, with “{2,3-bis[2-methoxy-4-nitro-5-sulfophenyl]-5- -[(phenylamino)carbonyl]-2H-tetrazolium hydroxide}” for “(2,3-bis[2-methoxy-4-nitro-5-sulfophenyl]-5-[(phenylamino)carbonyl]-2H-tetrazolium hydroxide)”, “Proc. Natl. Acad. Sci. USA 90: 9721-9724,” for “PNAS 90:9721-9724,”, “Agents &” for “Agents”, “and controls.” for “or control compounds.”, “method. […] Compound numbers therein refer to the numbers used in FIG. 1.” for “method.”

[2] = Hydrolysis assay (relative rates of hydrolysis); format: in vitro ADME
Description: (§2) One of the advantages of the compounds of the present invention over previously identified antiretroviral agents is their increased hydrolytic stability, which improves their biological activity and reduces the amount of compound that must be delivered to a treated subject to produce the desired effect. […] A PATE compound having the following structure is included: […]

[3] = tested on: HIV p24; test: p24 inhibition ELISA assay, HIV transgenic mouse model spleen cells; format: cell-based; conditions: for pEC50: Human immunodeficiency virus 1; for Therapeutic Index: p24 inhibition ELISA, HIV transgenic mouse model spleen cells
Description: as §2

[4] = tested on: HIV-1RF; test: XTT cytoprotection assay, CEM-SS cells infected with HIV-1RF; format: cell-based; conditions: HIV-1RF, CEM-SS cells; for pEC50: read-out: EC50 (50% cytoprotection), seven days, XTT
Description: as §1
as §1, with “{2,3-bis[2-methoxy-4-nitro-5-sulfophenyl]-5- -[(phenylamino)carbonyl]-2H-tetrazolium hydroxide}” for “(2,3-bis[2-methoxy-4-nitro-5-sulfophenyl]-5-[(phenylamino)carbonyl]-2H-tetrazolium hydroxide)”, “Proc. Natl. Acad. Sci. USA 90: 9721-9724,” for “PNAS 90:9721-9724,”, “Agents &” for “Agents”, “and controls.” for “or control compounds.”, “method. […] Compound numbers therein refer to the numbers used in FIG. 1.” for “method.”

[5] = tested on: HIV transgenic mouse model spleen cells; test: Cytotoxicity, HIV transgenic mouse model spleen cells; format: cell-based
Description: as §2

[6] = tested on: HIV-1 virus; test: Infectivity of treated virions, PCR assay for intracellularly-synthesized viral RNA; format: cell-based
Description: The treated virions can also be tested for infectivity. The virions are suspended in media (rather than solubilized) and added to target cells. The cultures are then examined to determine whether the virions are still active. To determine whether the treated virus particles are active, the cells are monitored for the presence of intracellularly-synthesized viral RNA using, for example, the polymerase chain reaction (PCR) (Rice (1993) Proc. Natl. Acad. Sci. USA 90:9721; Turpin (1996) J. Virol. 70:6180). Alternatively, cytoprotection assays can be used (Weislow (1993) J. Natl. Cancer Inst. 81:577). An example of a compound which can be used as a control in the gel mobility shift assay is azodicarbonamide (ADA), a compound which is commercially available from the Aldrich Chemical Company (Milwaukee, Wis.).

[7] = tested on: CEM-SS; test: XTT assay, cytotoxicity, HIV-2 (Rod/CEM-SS) section; format: cell-based
Description: as §1, with “{2,3-bis[2-methoxy-4-nitro-5-sulfophenyl]-5- -[(phenylamino)carbonyl]-2H-tetrazolium hydroxide}” for “(2,3-bis[2-methoxy-4-nitro-5-sulfophenyl]-5-[(phenylamino)carbonyl]-2H-tetrazolium hydroxide)”, “Proc. Natl. Acad. Sci. USA 90: 9721-9724,” for “PNAS 90:9721-9724,”, “Agents &” for “Agents”, “and controls.” for “or control compounds.”, “method. […] Compound numbers therein refer to the numbers used in FIG. 1.” for “method.”

[8] = tested on: PBMCs; test: XTT assay, cytotoxicity, HIV-1 144-44/PBMCs section; format: cell-based
Description: as §1, with “{2,3-bis[2-methoxy-4-nitro-5-sulfophenyl]-5- -[(phenylamino)carbonyl]-2H-tetrazolium hydroxide}” for “(2,3-bis[2-methoxy-4-nitro-5-sulfophenyl]-5-[(phenylamino)carbonyl]-2H-tetrazolium hydroxide)”, “Proc. Natl. Acad. Sci. USA 90: 9721-9724,” for “PNAS 90:9721-9724,”, “Agents &” for “Agents”, “and controls.” for “or control compounds.”, “method. […] Compound numbers therein refer to the numbers used in FIG. 1.” for “method.”

[9] = tested on: HIV-1 144-44 (mutation L10I/M46I/I54V/L63P/A71V/V82A/L90M); test: XTT assay against drug resistant mutant HIV-1 144-44 in PBMCs; format: cell-based; conditions: HIV-1 144-44/PBMCs
Description: as §1, with “{2,3-bis[2-methoxy-4-nitro-5-sulfophenyl]-5- -[(phenylamino)carbonyl]-2H-tetrazolium hydroxide}” for “(2,3-bis[2-methoxy-4-nitro-5-sulfophenyl]-5-[(phenylamino)carbonyl]-2H-tetrazolium hydroxide)”, “Proc. Natl. Acad. Sci. USA 90: 9721-9724,” for “PNAS 90:9721-9724,”, “Agents &” for “Agents”, “and controls.” for “or control compounds.”, “method. […] Compound numbers therein refer to the numbers used in FIG. 1.” for “method.”

[10] = tested on: HIV-1 1026040 (mutation V32I/M46I/L63P/L90M); test: XTT assay against drug resistant mutant HIV-1 1026040; format: cell-based
Description: as §1, with “{2,3-bis[2-methoxy-4-nitro-5-sulfophenyl]-5- -[(phenylamino)carbonyl]-2H-tetrazolium hydroxide}” for “(2,3-bis[2-methoxy-4-nitro-5-sulfophenyl]-5-[(phenylamino)carbonyl]-2H-tetrazolium hydroxide)”, “Proc. Natl. Acad. Sci. USA 90: 9721-9724,” for “PNAS 90:9721-9724,”, “Agents &” for “Agents”, “and controls.” for “or control compounds.”, “method. […] Compound numbers therein refer to the numbers used in FIG. 1.” for “method.”

[11] = tested on: PBMCs; test: XTT assay, cytotoxicity, HIV-1 (RoJo/PBMCs) section; format: cell-based
Description: as §1, with “{2,3-bis[2-methoxy-4-nitro-5-sulfophenyl]-5- -[(phenylamino)carbonyl]-2H-tetrazolium hydroxide}” for “(2,3-bis[2-methoxy-4-nitro-5-sulfophenyl]-5-[(phenylamino)carbonyl]-2H-tetrazolium hydroxide)”, “Proc. Natl. Acad. Sci. USA 90: 9721-9724,” for “PNAS 90:9721-9724,”, “Agents &” for “Agents”, “and controls.” for “or control compounds.”, “method. […] Compound numbers therein refer to the numbers used in FIG. 1.” for “method.”

[12] = tested on: cells; test: XTT assay, cytotoxicity, HIV-1 1026040 section; format: cell-based
Description: as §1, with “{2,3-bis[2-methoxy-4-nitro-5-sulfophenyl]-5- -[(phenylamino)carbonyl]-2H-tetrazolium hydroxide}” for “(2,3-bis[2-methoxy-4-nitro-5-sulfophenyl]-5-[(phenylamino)carbonyl]-2H-tetrazolium hydroxide)”, “Proc. Natl. Acad. Sci. USA 90: 9721-9724,” for “PNAS 90:9721-9724,”, “Agents &” for “Agents”, “and controls.” for “or control compounds.”, “method. […] Compound numbers therein refer to the numbers used in FIG. 1.” for “method.”

[13] = tested on: HIV-2 (Rod); test: XTT cytoprotection assay, HIV-2 (Rod/CEM-SS); format: cell-based
Description: as §1, with “{2,3-bis[2-methoxy-4-nitro-5-sulfophenyl]-5- -[(phenylamino)carbonyl]-2H-tetrazolium hydroxide}” for “(2,3-bis[2-methoxy-4-nitro-5-sulfophenyl]-5-[(phenylamino)carbonyl]-2H-tetrazolium hydroxide)”, “Proc. Natl. Acad. Sci. USA 90: 9721-9724,” for “PNAS 90:9721-9724,”, “Agents &” for “Agents”, “and controls.” for “or control compounds.”, “method. […] Compound numbers therein refer to the numbers used in FIG. 1.” for “method.”

[14] = tested on: cells; test: XTT assay, cytotoxicity, SIV (Mac 251) section; format: cell-based
Description: as §1, with “{2,3-bis[2-methoxy-4-nitro-5-sulfophenyl]-5- -[(phenylamino)carbonyl]-2H-tetrazolium hydroxide}” for “(2,3-bis[2-methoxy-4-nitro-5-sulfophenyl]-5-[(phenylamino)carbonyl]-2H-tetrazolium hydroxide)”, “Proc. Natl. Acad. Sci. USA 90: 9721-9724,” for “PNAS 90:9721-9724,”, “Agents &” for “Agents”, “and controls.” for “or control compounds.”, “method. […] Compound numbers therein refer to the numbers used in FIG. 1.” for “method.”

[15] = tested on: HIV-1 (RoJo); format: cell-based; conditions: HIV-1 (RoJo/PBMCs)
Description: as §1, with “{2,3-bis[2-methoxy-4-nitro-5-sulfophenyl]-5- -[(phenylamino)carbonyl]-2H-tetrazolium hydroxide}” for “(2,3-bis[2-methoxy-4-nitro-5-sulfophenyl]-5-[(phenylamino)carbonyl]-2H-tetrazolium hydroxide)”, “Proc. Natl. Acad. Sci. USA 90: 9721-9724,” for “PNAS 90:9721-9724,”, “Agents &” for “Agents”, “and controls.” for “or control compounds.”, “method. […] Compound numbers therein refer to the numbers used in FIG. 1.” for “method.”

[16] = tested on: SIV (Mac 251); test: XTT cytoprotection assay, SIV (Mac 251); format: cell-based
Description: as §1, with “{2,3-bis[2-methoxy-4-nitro-5-sulfophenyl]-5- -[(phenylamino)carbonyl]-2H-tetrazolium hydroxide}” for “(2,3-bis[2-methoxy-4-nitro-5-sulfophenyl]-5-[(phenylamino)carbonyl]-2H-tetrazolium hydroxide)”, “Proc. Natl. Acad. Sci. USA 90: 9721-9724,” for “PNAS 90:9721-9724,”, “Agents &” for “Agents”, “and controls.” for “or control compounds.”, “method. […] Compound numbers therein refer to the numbers used in FIG. 1.” for “method.”

[17] = tested on: CEM-SS cells; test: XTT assay, cytotoxicity (cellular growth inhibition) in CEM-SS cells; format: cell-based; conditions: read-out: IC50 (50% cytotoxicity)
Description: as §1
as §1, with “{2,3-bis[2-methoxy-4-nitro-5-sulfophenyl]-5- -[(phenylamino)carbonyl]-2H-tetrazolium hydroxide}” for “(2,3-bis[2-methoxy-4-nitro-5-sulfophenyl]-5-[(phenylamino)carbonyl]-2H-tetrazolium hydroxide)”, “Proc. Natl. Acad. Sci. USA 90: 9721-9724,” for “PNAS 90:9721-9724,”, “Agents &” for “Agents”, “and controls.” for “or control compounds.”, “method. […] Compound numbers therein refer to the numbers used in FIG. 1.” for “method.”

[18] = Human immunodeficiency virus 1, 168 h

SMILES: COc1ccc(C(=O)Sc2ccccc2C(=O)NCCC(N)=O)cc1OC [Compound 11]
- IC50 at 7 days [1]: 165 µM
- half-life [2]: 244 min
- pEC50 [3]: 5.44
- Therapeutic Index [3]: >69
- Therapeutic Index [4]: 24
- pEC50 [4, 18]: 5.16
- pIC50 [5]: < 3.60

SMILES: CC(C)(C)c1ccc(C(=O)Sc2ccccc2C(=O)NCCC(N)=O)cc1 [Compound 23]
- IC50 at 7 days [1]: 107 µM
- half-life [2]: > 500 min
- pEC50 [3]: 5.66
- Therapeutic Index [3]: 56
- Therapeutic Index [4]: 24
- pEC50 [4, 18]: 5.35
- pIC50 [5]: 3.91

SMILES: NC(=O)N=NC(N)=O [ADA, azodicarbonamide]
- Inactivation of HIV-1 virus [6]: inactivates HIV-1 virus

SMILES: NC(=O)C1CN1C(=O)c1ccccc1SC(=O)NC1CCCCC1 (centres unmarked) [Compound 129]
- pIC50 [7]: 5.18
- pIC50 [8]: < 3.70
- pEC50 [9]: 6.77
- TI [9]: >1168
- pEC50 [10]: 5.40
- TI [10]: >51
- pIC50 [11]: 3.74
- pIC50 [12]: < 3.70
- pEC50 [4]: 6.26
- pEC50 [13]: 6.98
- pIC50 [14]: 4.66
- pEC50 [15]: 5.42
- pEC50 [16]: 6.54

SMILES: Cc1ccccc1C(=O)Sc1ccccc1C(=O)NCCC(N)=O [Compound 22]
- IC50 at 7 days [1]: 22 µM
- half-life [2]: 408 min
- pEC50 [3]: 5.59
- Therapeutic Index [3]: 23
- Therapeutic Index [4]: 2.3
- pEC50 [4, 18]: 5.01
- pIC50 [5]: 4.23

SMILES: CC(C)(C)CC(C)(C)NC(=O)Sc1ccccc1C(=O)N1CC1C(N)=O (centres unmarked) [Compound 131]
- pIC50 [17]: 4.45
- Therapeutic Index [4]: 80
- pEC50 [4]: 6.35

SMILES: COc1cc(OC)cc(C(=O)Sc2ccccc2C(=O)NCCC(N)=O)c1 [Compound 12]
- IC50 at 7 days [1]: 102 µM
- half-life [2]: 465 min
- pEC50 [3]: 5.46
- Therapeutic Index [3]: 39
- Therapeutic Index [4]: 13
- pEC50 [4, 18]: 5.09
- pIC50 [5]: 3.87

SMILES: Cc1cn([C@H]2C[C@H](N=[N+]=[N-])[C@@H](CO)O2)c(=O)[nH]c1=O [AZT, 3′-azido-2′, 3′-dideoxythymidine, reference compound]
- pIC50 [7]: < 6.00
- pIC50 [8]: < 3.70
- pEC50 [9]: 5.89
- TI [9]: >153
- pEC50 [10]: 8.22
- TI [10]: >167
- pIC50 [11]: < 5.40
- pIC50 [12]: < 6.00
- pEC50 [13]: 7.77
- pIC50 [14]: < 6.00
- pEC50 [15]: 8.00
- pEC50 [16]: 7.70

SMILES: Cc1cccc(C(=O)NCCC(N)=O)c1SC(=O)c1ccccc1 [Compound 61]
- half-life [2]: 421 min
- pEC50 [3]: 4.80
